From patent US20210108198A1, “APPLICATION OF COMPOUND OR TRADITIONAL CHINESE MEDICINE EXTRACT IN PREPARATION OF NUCLEIC ACID DELIVERY AGENT AND RELATED PRODUCTS THEREOF” (INSTITUTE OF BASIC MEDICAL SCIENCES CHINESE ACADEMY OF …, priority 2017, published 2021)
“Also recorded” adds a separate entry of the source.

What was measured:
A549 cell = experiment: RT-qPCR detection of nucleic acid delivered by lipid into A549 cells; type: cell-based, human; conditions: double-stranded HJT-sRNA-m7 100 nM; reverse evaporation method; 12 hours; FIG. 99
Description: 3.1 NCI-N87 cell (gastric cancer cell), MRC-5 cell (lung fibroblast), A549 cell (lung cancer cell) were cultured to logarithmic growth phase, and then plated to a six-well plate at cell density of 1×10^6/2 mL medium/well; MRC-5 cell was cultured in Eagle's MEM medium (MEM, Gibco); A549 cell was cultured in Ham's F-12 medium (HyClone); NCI-N87 cell was cultured in RPMI-1640 medium (HyClone); followed by incubation overnight at 37° C., and the follow-up experiments were performed after the cells were attached to the walls.
4) Lipid nucleic acid mixture: the mixture of lipid and HJT-sRNA-m7 prepared from the step 2 were added into cells and mixed, and the final concentration of RNA was kept at 200 nM.
3.3 After co-incubation with the small RNA for 3 hours, the cells were washed 2-3 times with PBS. The cells were harvested with TRIzol lysis buffer, and the total RNA was extracted. The abundance of small RNA that entered cells was detected by RT-qPCR, and the localization of RNA was detected by fluorescence in situ hybridization; protocols of each detection method were as follows:
3.3.1 RT-qPCR Detection of Small RNA (Taqman Probe Method)
3.3.2 RT-qPCR Detection of Small RNA (SYBR Green Dye Method)
Mixtures of soybean PC, lipid No. 11 (18:0/18:2) and lipid No. 12 (16:0/18:2), and various small RNA (see below Table 3) were prepared by the reverse evaporation method and then added into A549 cell line (the final concentration of sRNA was 200 nM); the negative control group (control) was directly added with the same concentration of sRNA; the positive control group (RNAimax) was transfected with Lipofectamine RNAimax (transfection reagent 6 μl/well). The abundance of sRNA in the cells was detected by Taqman probe after 3 hours, and the relative expression level of sRNA was calculated by 2-ΔCt method.
3.1.3 After co-incubation with cells for 12-24 hours, the cells were washed twice with PBS. The cells were harvested with TRIzol lysis buffer (purchased from Sigma-Aldrich), and total RNA was extracted. The abundance of HJT-sRNA-m7 that entered the cells was detected by RT-qPCR; the protocols were as follows:
4368813) was used to reverse transcribe sRNA to cDNA by stem-loop method (see, e.g. Real-time quantification of microRNAs by stem-loop RT-PCR, Nucleic Acids Res. 2005 Nov. 27; 33(20):e179, incorporated by reference herein).

[1] = test system: fibronectin protein expression in MRC-5 cells; experiment: Western blot of fibronectin after lipid-mediated delivery of anti-fibrotic HJT-sRNA into TGF-β1 stimulated MRC-5 cells; type: cell-based; conditions: nucleic acid 400 nM; TGF-β1 3 ng/mL; preparation method not given; FIG. 102
Description: 3.3.1 MRC-5 cell (pulmonary embryonic fibroblast), and A549 cell (human lung adenocarcinoma cell) were cultured to logarithmic growth phase, and then plated into 12-well plates at a cell density of 6×10^5/1 mL medium/well; MRC-5 cells were cultured in Eagle's MEM medium (MEM, Gibco); A549 cells were cultured in Ham's F-12 medium (HyClone); followed by incubation overnight at 37° C., and the follow-up experiments were performed after the cells were attached to the walls.
4) Lipid nucleic acid mixture: the mixture of lipid and nucleic acid prepared from the step 2 were added into cells and mixed, and the final concentration of nucleic acid was 400 nM.
3.3.3 After 24 hours of treatment, the cells were stimulated with the stimulant (1 μg/mL poly (I:C) (P1530, Sigma-Aldrich) as double-stranded RNA viruses mimetics) or 3 ng/mL transforming growth factor TGFβ1 (Pepro Tech)). […]

A549 cells [2] = experiment: Digital PCR (ddPCR) detection of the efficiency of nucleic acid delivery by lipid; type: cell-based, human
Description: (§1) 2.2 Experimental method: the total cellular RNA was collected and extracted by TRIzol lysis buffer according to the above methods, and reverse transcribed to cDNA using High capacity cRNA Reverse Transcription Kit, and the cDNA from different groups was subject to digital PCR reaction. Refering to the QX200 Droplet Reader and QuantaSoft Software manual for the protocols, the results were analyzed using QuantaSoft software.
as §1, with “method:” for “method: the”, “total” for “total cellular”, “method,” for “methods,”, “subjected” for “subject”, “Refer” for “Refering”, “protocols;” for “protocols,”
(§2) 2.2 Experimental method: Total RNA was collected and extracted by TRIzol lysis buffer according to the above method, and reverse transcribed to cDNA using TaqMan™ MicroRNA Reverse Transcription KitHigh, and the cDNA from different groups was subjected to digital PCR reaction. Refer to the QX200 Droplet Reader and QuantaSoft Software manual for the protocols; the results were analyzed using QuantaSoft software.
as §2, with “reversed” for “reverse transcribed”, “High capacity cRNA” for “TaqMan™ MicroRNA”, “Kit,” for “KitHigh,”

A549 cells [3] = experiment: Confocal fluorescence microscopy of nucleic acid delivered by lipid in cells; type: cell-based, human; conditions: 4 μl lipid, boiling method; 6 hours of co-incubation
Description: Experimental materials: A549 cells (purchased from the Cell Center of the Chinese Academy of Medical Sciences), PGY-sRNA-6-Cy3 (purchased from Ribobio Biotechnology Co., Ltd.), lipid No. 41, Zeiss LSM780 (purchased from Zeiss, Germany), Alexa Fluor® 488 phalloidin (purchased from Invitrogen, USA), DAPI (purchased from Invitrogen, USA), paraformaldehyde (purchased from sigma, USA).
(§3) Experimental methods: PGY-sRNA-6-FAM was dissolved in 100 μl water, mixed with 4 μl lipid, and prepared by the boiling method. Then the mixture was dropped into A549 cells, and after 6 hours of co-incubation, the samples were washed three times with PBS, fixed with 4% paraformaldehyde, washed three times with PBS, stained with Alexa Fluor® 488 phalloidin for 30 min, washed 3 times with PBS, and stained with DAPI for 5 min, washed with PBS, and then sealed.
as §3, with “method:” for “methods:”, “water, and” for “water,”, “by” for “by the”, “Then,” for “Then”, “PBS washed,” for “washed with PBS,”

[4] = In vivo delivery of single-stranded sRNA by single lipid via gavage (blood, stomach, small intestine, liver); parameters: species or system C57 mice; conditions: 10 μl lipid, 1 nmol each sRNA (PGY-sRNA-23/-26/-32), heating method, 6 hours or 12 hours after administration
From the text: Tissues sampled: live/stomach/small intestine.

**Q.** Which results are given for `CCCCCCCC/C=C\CCCCCCCCCCCC(=O)O[C@H](COC(=O)CCCCCCCCCCCCCCC)COP(=O)(O)OCCN` [No. 40, (2-aminoethoxy)[(2R)-2-[(13Z)-docos-13-enoyloxy]-3-(hexadecanoyloxy)propoxy]phosphinic acid]?
**A.** delivery effect relative to RNAiMAX (real-time PCR) (A549 cell): ½; fibronectin protein expression after delivery of double-stranded HJT-sRNA-m7 (Western blot) [1]: to down-regulate fibronectin protein expression; delivery of HJT-sRNA-m7 dsRNA (ddPCR) (A549 cells [2]; boiling method, 6 hours): could effectively deliver HJT-sRNA-m7 dsRNA into A549 cells; delivery of HJT-sRNA-m7 dsRNA (ddPCR) (A549 cells [2]; reverse evaporation method, 6 hours (No. 39: 6 hours, 12 hours)): could effectively deliver HJT-sRNA-m7 dsRNA into A549 cells; entry of PGY-sRNA-6-Cy3 observed under the confocal microscopy (A549 cells [3]): could effectively deliver single-stranded RNA into A549 cells; entry of single-stranded small RNA into mouse blood (RT-qPCR) [4]: could effectively deliver sRNA single-stranded nucleic acid into mouse blood via oral administration; also recorded: the delivery effect was better than POPC and Lipofectamine RNAiMAX
